Laboratory results from ChEMBL document CHEMBL1132145, “Effects of C-4 stereochemistry and C-4' hydroxylation on the iron clearing efficiency and toxicity of desferrithiocin analogues” (1999).

Key:
Type in all cases: functional
Monkey [1] = test: The compound was tested in vivo for the iron clearing activity against non -iron-overloaded Cebus apella monkey at a concentration of 300 uM/Kg
Monkey [2] = test: The compound was tested in vivo for the iron clearing activity against non -iron-overloaded Cebus apella monkey at a concentration of 300 uM/Kg with distilled water
Monkey [3] = test: The compound was tested in vivo for the iron clearing activity against non -iron-overloaded Cebus apella monkey at a concentration of 150 uM/Kg, with distilled water
Monkey [4] = test: The compound was tested in vivo for the iron clearing activity against non -iron-overloaded Cebus apella monkey at a concentration of 150 uM/Kg
Rattus norvegicus [5] = test: The compound was tested in vivo for the iron clearing activity against non-iron-overloaded-bile duct cannulated rat, at a concentration of 150 uM/Kg
Monkey [6] = test: The compound was tested in vivo for the iron clearing activity against non -iron-overloaded Cebus apella monkey at a concentration of 300 uM/Kg.
Monkey [7] = test: The compound was tested in vivo for the iron clearing activity against non-iron-overloaded Cebus apella monkey, values in parentheses indicate the % breakdown of iron excreted in stool and urine, at a concentration of 75 uM/Kg.
Monkey [8] = test: The compound was tested in vivo for the iron clearing activity against non-iron-overloaded Cebus apella monkey, values in parentheses indicate the % breakdown of iron excreted in stool and urine, at a concentration of 300 uM/Kg.
Monkey [9] = test: The compound was tested in vivo for the iron clearing activity against non -iron-overloaded Cebus apella monkey at a concentration of 150 uM/Kg.
Rattus norvegicus [10] = test: The compound was tested in vivo for the iron clearing activity against non-iron-overloaded-bile duct cannulated rat, at a concentration of 150 uM/Kg(po)
Monkey [11] = test: The compound was tested in vivo for the iron clearing activity against non -iron-overloaded Cebus apella monkey at a concentration of 75 uM/Kg

| SMILES | Efficiency (Monkey [4]) | Efficiency (Rattus norvegicus [5]) | Efficiency (Monkey [6]) | also measured |
| --- | --- | --- | --- | --- |
| O=C(O)[C@H]1CSC(c2ccc(O)cc2O)=N1 | 4.2% | 2.4% | – | Efficiency (Monkey [1]): 5.6%; Efficiency (Monkey [2]): 4.8%; Efficiency (Monkey [3]): 5.6% |
| O=C(O)[C@H]1CSC(c2ncccc2O)=N1 | 4.8% | 2.4% | 8% | – |
| O=C(O)[C@H]1CSC(c2ccccc2O)=N1 | – | 1.4% | 12.4% | – |
| C[C@]1(C(=O)O)CSC(c2ccccc2O)=N1 | – | 2.7% | 13.1% | Efficiency (Monkey [7]): 21.5% |
| O=C(O)[C@@H]1CSC(c2ncccc2O)=N1 | 0.5% | 3.9% | – | – |
| O=C(O)[C@@H]1CSC(c2ccccc2O)=N1 | – | 4.2% | – | Efficiency (Monkey [8]): 8.2% |
| O=C(O)[C@@H]1CSC(c2ccc(O)cc2O)=N1 | – | – | – | Efficiency (Monkey [9]): 1.7%; Efficiency (Rattus norvegicus [10]): <0.5% |
| C[C@]1(C(=O)O)CSC(c2ccc(O)cc2O)=N1 [DEFERITRIN] | – | <0.5% | – | Efficiency (Monkey [9]): 13.4%; Efficiency (Monkey [11]): 17.7% |
| C[C@]1(C(=O)O)CSC(c2ncccc2O)=N1 [DESFERRITHIOCIN] | 16.1% | 5.5% | – | – |
